# Data published in US20220395472A1 (Dermavant Sciences GmbH, priority 2021, published 2022).
# Experiments:
# [1] = test system: adults with mild to severe plaque psoriasis; test: PSOARING 1 & 2 12-week pivotal phase 3 trials; type: in vivo, human; conditions: Week 12
# Protocol: All secondary endpoints were met, with statistical significance. […] Here, we present further analyses of the DLQI results, including an evaluation of correlations between the DLQI and clinical efficacy as assessed by PGA and Psoriasis Area and Severity Index (PASI) scores in PSOARING 1 & 2.
# The DLQI is a 10-item scale where each item rates impact on quality of life (QoL) on a 4-point scale from 0 (not at all) to 3 (very much); lower scores indicate higher QoL. Efficacy was evaluated using PGA and PASI. Spearman rank correlations were used to evaluate correlations between changes from baseline in efficacy and changes from baseline in QoL at Week 12. Analyses used observed cases and were based on the intention-to-treat population.
# [2] = test system: adults with plaque psoriasis; test: Long-term extension study (PSOARING 3): % BSA affected; type: in vivo, human
# Protocol: The % BSA affected is an estimate of the percentage of total involved skin with psoriasis. For the purpose of clinical estimation, the total palmar surface of the subject's palm and digits was assumed to be approximately equivalent to 1% BSA. The % BSA affected by psoriasis was evaluated (from 0% to 100%). Details on calculation of approximate % BSA involvement in each subject (total and individual) can be found in Appendix 2 of the protocol. Percent BSA is a static assessment made without reference to previous scores.
# At Screening, Baseline, and for all efficacy assessments, lesions on the subject's scalp, palms, fingernails, toenails, and soles were not included in the calculation of % BSA affected as these areas were excluded from the efficacy analyses.
# [3] = Preclinical repeat-dose systemic exposure; type: in vivo
# Description: The reason for the decrease in plasma concentrations over time is unknown. Without wishing to be bound by theory, as the skin heals, there may be less penetration of the drug through the stratum corneum and into the systemic circulation since the barrier is restored.
# [4] = test system: adults with plaque psoriasis; test: Long-term extension study (PSOARING 3): patient-reported and investigator-assessed Local Tolerability Scale; type: in vivo, human; conditions: all anatomic regions incl. sensitive areas; 40 weeks
# Protocol: Tolerability is defined as the local tolerability using a patient-reported 5-point scale for burning/stinging and itching, and an investigator-assessed 5-point scale for dryness, erythema, and peeling.
# Tolerability was assessed subjectively via subject and objectively via Investigator throughout the 40 weeks of the study. The patient-reported local tolerability scale utilized for self-reported tolerability assessment is shown in Table 20, while the investigator-assessed local tolerability scale utilized is shown in Table 21.
# [5] = test system: adults with plaque psoriasis; test: Long-term extension study (PSOARING 3): Dermatology Life Quality Index (DLQI); type: in vivo, human; design: key to DLQI Total Score, Observed, Mean / DLQI Total Score, Observed, Median: DLQI total score 0–30; higher = greater quality-of-life impairment
# Description: Subjects completed the DLQI questionnaire. The DLQI is a simple, validated, dermatology specific, 10 question questionnaire to assess the impact of the disease on a subject's quality of life. The DLQI is an important outcome measure in dermatology clinical trials and is the most frequently used instrument in randomized, controlled dermatology trials. The DLQI can be analyzed as a total score (where a higher score indicates greater impairment in quality of life) and can also be scored for the following dimensions: Symptoms and Feelings (Items 1 and 2), Daily Activities (Items 3 and 4), Leisure (Items 5 and 6), Work and School (Item 7), Personal Relationships (Items 8 and 9), and Treatment (Item 10).
# The DLQI is a 10 item subject reported outcome, 6 domain measure that assessed the extent to which the skin condition had affected the subject's quality of life over the past week. The total score (0 to 30) is the sum of 10 questions with each ranging from 0 to 3. The DLQI was assessed at 4 week intervals. If one question was left unanswered, this was scored as 0 and the scores were summed and expressed as usual out of a maximum of 30. If ≥2 questions were left unanswered, the total DLQI score was considered missing.
# DLQI total score and sub scores on DLQI domains and their changes from baseline as well as percent change from baseline values were summarized descriptively. Additional details of the analysis of the DLQI are provided in the SAP.
# [6] = Week 16, OC, Tapinarof (Pivotal) group
# [7] = Week 16, OC, Vehicle (Pivotal) group
# [8] = Week 40, OC, Tapinarof (Pivotal) group
# [9] = Week 40, OC, Vehicle (Pivotal) group
# [10] = Week 16 OC, Tapinarof (Pivotal)
# [11] = Week 40 OC, Tapinarof (Pivotal)
structure (smiles),measurement,setting,value
"CC(C)c1c(O)cc(/C=C/c2ccccc2)cc1O [Tapinarof, 3,5-Dihydroxy-4-isopropyl-trans-stilbene]",PGA response (PGA 0 or 1 and ≥2-grade improvement from baseline),[1]; PSOARING 1,35.4%
same,mean change in DLQI from baseline,[1]; PSOARING 1,~5.0
same,patients who achieved a DLQI of 0 or 1,[1]; PSOARING 1,47.4%
same,PGA response (PGA 0 or 1 and ≥2-grade improvement from baseline),[1]; PSOARING 2,40.2%
same,mean change in DLQI from baseline,[1]; PSOARING 2,~4.7
same,patients who achieved a DLQI of 0 or 1,[1]; PSOARING 2,44.9%
same,mean % BSA affected,"[2]; Week 16, LOCF, Tapinarof (Pivotal) group",2.54%
same,mean % BSA affected,"[2]; Week 16, LOCF, Vehicle (Pivotal) group",3.36%
same,mean % BSA affected,[2]; [6],1.97%
same,mean % BSA affected,[2]; [7],2.89%
same,mean % BSA affected,"[2]; Week 16 LOCF, Overall",2.82%
same,mean % BSA affected,"[2]; Week 16 OC, Overall",2.28%
same,mean % BSA affected,"[2]; Week 40, LOCF, Tapinarof (Pivotal) group",2.44%
same,mean % BSA affected,"[2]; Week 40, LOCF, Vehicle (Pivotal) group",2.99%
same,mean % BSA affected,[2]; [8],1.75%
same,mean % BSA affected,[2]; [9],2.07%
same,mean % BSA affected,"[2]; Week 40 LOCF, Overall",2.63%
same,mean % BSA affected,"[2]; Week 40 OC, Overall",1.85%
same,systemic exposures with repeat dosing compared to single doses,[3]; minipigs,no changes in systemic exposures
same,systemic exposures with repeat dosing compared to single doses,[3]; rats,no changes in systemic exposures
same,local tolerability (patient and investigator assessments),[4],well-tolerated
same,"DLQI Total Score, Observed, Mean","[5]; Baseline, Overall",4.3
same,"DLQI Total Score, Observed, Median","[5]; Baseline, Overall",2.0
same,"DLQI Total Score, Observed, Mean","[5]; Baseline, Tapinarof (Pivotal)",3.3
same,"DLQI Total Score, Observed, Median","[5]; Baseline, Tapinarof (Pivotal)",2.0
same,mean (SD) DLQI total score,[5]; [6],2.0 (3.23)
same,mean (SD) DLQI total score,[5]; [7],3.0 (5.19)
same,"DLQI Total Score, CFBL, Mean","[5]; Week 16 OC, Overall",−1.7
same,"DLQI Total Score, CFBL, Median","[5]; Week 16 OC, Overall",−1.0
same,"DLQI Total Score, Observed, Mean","[5]; Week 16 OC, Overall",2.3
same,"DLQI Total Score, Observed, Median","[5]; Week 16 OC, Overall",1.0
same,"DLQI Total Score, Percent CFBL, Mean","[5]; Week 16 OC, Overall",−30.7%
same,"DLQI Total Score, Percent CFBL, Median","[5]; Week 16 OC, Overall",−60.0%
same,mean (SD) DLQI total score,"[5]; Week 16 OC, Overall",2.3 (4.02)
same,"DLQI Total Score, CFBL, Mean",[5]; [10],−1.0
same,"DLQI Total Score, CFBL, Median",[5]; [10],0.0
same,"DLQI Total Score, Observed, Mean",[5]; [10],2.0
same,"DLQI Total Score, Observed, Median",[5]; [10],1.0
same,"DLQI Total Score, Percent CFBL, Mean",[5]; [10],−21.3%
same,"DLQI Total Score, Percent CFBL, Median",[5]; [10],−50.0%
same,"DLQI Total Score, CFBL, Mean","[5]; Week 16 OC, Vehicle (Pivotal)",−3.1
same,"DLQI Total Score, CFBL, Median","[5]; Week 16 OC, Vehicle (Pivotal)",−3.0
same,"DLQI Total Score, Observed, Mean","[5]; Week 16 OC, Vehicle (Pivotal)",3.0
same,"DLQI Total Score, Observed, Median","[5]; Week 16 OC, Vehicle (Pivotal)",1.0
same,"DLQI Total Score, Percent CFBL, Mean","[5]; Week 16 OC, Vehicle (Pivotal)",−45.9%
same,"DLQI Total Score, Percent CFBL, Median","[5]; Week 16 OC, Vehicle (Pivotal)",−73.0%
same,mean (SD) DLQI total score,[5]; [8],1.6 (2.36)
same,mean (SD) DLQI total score,[5]; [9],2.0 (4.23)
same,"DLQI Total Score, CFBL, Mean","[5]; Week 40 OC, Overall",−2.0
same,"DLQI Total Score, CFBL, Median","[5]; Week 40 OC, Overall",−1.0
same,"DLQI Total Score, Observed, Mean","[5]; Week 40 OC, Overall",1.7
same,"DLQI Total Score, Observed, Median","[5]; Week 40 OC, Overall",1.0
same,"DLQI Total Score, Percent CFBL, Mean","[5]; Week 40 OC, Overall",−41.6%
same,"DLQI Total Score, Percent CFBL, Median","[5]; Week 40 OC, Overall",−72.1%
same,"DLQI Total Score, CFBL, Mean",[5]; [11],−1.1
same,"DLQI Total Score, CFBL, Median",[5]; [11],0.0
same,"DLQI Total Score, Observed, Mean",[5]; [11],1.6
same,"DLQI Total Score, Observed, Median",[5]; [11],1.0
same,"DLQI Total Score, Percent CFBL, Mean",[5]; [11],−25.0%
same,"DLQI Total Score, Percent CFBL, Median",[5]; [11],−61.3%
same,"DLQI Total Score, CFBL, Mean","[5]; Week 40 OC, Vehicle (Pivotal)",−3.9
same,"DLQI Total Score, CFBL, Median","[5]; Week 40 OC, Vehicle (Pivotal)",−3.0
same,"DLQI Total Score, Observed, Mean","[5]; Week 40 OC, Vehicle (Pivotal)",2.0
same,"DLQI Total Score, Observed, Median","[5]; Week 40 OC, Vehicle (Pivotal)",0.0
same,"DLQI Total Score, Percent CFBL, Mean","[5]; Week 40 OC, Vehicle (Pivotal)",−69.2%
same,"DLQI Total Score, Percent CFBL, Median","[5]; Week 40 OC, Vehicle (Pivotal)",−88.9%
